Data as given in PubChem BioAssay AID2305 (GlaxoSmithKline (GSK), 2010).
pIC50: −log10 of the molar value.

Test system: P. falciparum 3D7 growth, pLDH absorbance
Experiment: P. falciparum 3D7 growth inhibition, dose response, strain 3D7 (AID 2305)

Question: With C=C(C)C1CC=C(CN2CCCC(n3ccc4cc(NC(=O)c5ccco5)ccc43)CC2)CC1 (centres undefined) as the molecule, how does the pIC50 read?
Answer: 6.12

Question: O=C(Cn1c(CCc2cccc(F)c2F)nc(=O)c2ccccc21)N(Cc1ccc(-c2ccc(C(F)(F)F)cc2)cc1)C1CCN(C2CCSCC2)CC1 was tested. Which pIC50 did it give?
Answer: 6.07

Question: Cc1ccc(C)c(NC(=O)NCCNc2ccnc(Nc3ccc(F)cc3)n2)c1 was tested. Which pIC50 did it give?
Answer: 6.09

Question: Cc1cc(C)cc(N2C(N)=NC(N)=NC2(C)C)c1 was tested. Which pIC50 did it give?
Answer: 7.40

Question: How did the pIC50 turn out when COc1ccc(CN(C)CCCOc2ccc(NC(=O)c3cccc4c(=O)c5cccc(F)c5[nH]c34)cc2)cc1OC was run?
Answer: 6.19

Question: With CC(Cc1ccc(S(=O)(=O)N(C(C)C)C(C)C)cc1)NCC(O)c1cccc(C(F)(F)F)c1 (centres undefined) as the molecule, how does the pIC50 read?
Answer: 6.16

Question: With COc1ccccc1-c1nc2nc(N)nc(N)c2nc1-c1ccccc1OC as the molecule, how does the pIC50 read?
Answer: 5.90

Question: How did the pIC50 turn out when COc1ccc(CN2C(=S)N(Cc3ccccc3)C(=O)C2CC(=O)Nc2ccccc2)cc1OC (centres undefined) was run?
Answer: 6.08

Question: With Cc1ccc(NC(C)C(=O)Nc2ccccc2)cc1S(=O)(=O)N1CCCCCC1 (centres undefined) as the molecule, how does the pIC50 read?
Answer: 7.22

Question: With Cc1cccc2[nH]c(-c3cccc(-c4cccc(CNCCc5cccn5C)c4)c3)nc12 as the molecule, how does the pIC50 read?
Answer: 6.14

Question: How did the pIC50 turn out when N#Cc1ccc(NC(=NC2CCN(Cc3ccccc3)CC2)Nc2ccccc2Cl)c(O)c1 was run?
Answer: 6.52

Question: How did the pIC50 turn out when CCN(CC)CCN(Cc1ccc(-c2ccc(C(F)(F)F)cc2)cc1)C(=O)c1ccc(-c2ccc(C#N)cc2)cc1 was run?
Answer: 5.95

Question: How did the pIC50 turn out when CC1(C)CCC(=Cc2ccc(Cl)cc2)CC1(O)Cn1ccnc1 (centres undefined) was run?
Answer: 6.13

Question: With O=C(Cn1c(SCc2cccc(F)c2F)cc(=O)c2ccccc21)N(Cc1ccc(-c2ccc(C(F)(F)F)cc2)cc1)C1CCN(CCO)CC1 as the molecule, how does the pIC50 read?
Answer: 5.90

Question: With CC(=O)Nc1ccc(CN2CCC(NC(=O)c3ccc(-c4cccc(Cl)c4)s3)CC2)cc1 as the molecule, how does the pIC50 read?
Answer: 6.10

Question: With O=c1cc(NCCCNCc2cc(Cl)c(Cl)cc2Cl)[nH]c2ccccc12 as the molecule, how does the pIC50 read?
Answer: 6.01

Question: How did the pIC50 turn out when CC1(C)N=C(N)N=C(N)N1OCc1cccc(C#N)c1 was run?
Answer: 8.00

Question: Cc1cc(C(=O)NC2CCN(CC3(c4ccc(Cl)cc4)CCC3)CC2)on1 was tested. Which pIC50 did it give?
Answer: 7.05

Question: How did the pIC50 turn out when O=C(c1ccc([N+](=O)[O-])o1)N1CCN(c2nc3c(Cl)cccc3s2)CC1 was run?
Answer: 6.01

Question: With NS(=O)(=O)c1cccc(N=Cc2c(O)[nH]c3ccc(S(=O)(=O)Cc4c(Cl)cccc4Cl)cc23)c1 as the molecule, how does the pIC50 read?
Answer: 6.14

Question: O=C(Nc1ccc2ccccc2c1)N(CCCn1ccnc1)Cc1csc(-c2ccc(CNCc3ccccc3)cc2)n1 was tested. Which pIC50 did it give?
Answer: 6.13

Question: How did the pIC50 turn out when O=C(Nc1cccc(-c2ccc(-c3nc4ccc(C(F)(F)F)cc4[nH]3)cc2)c1)c1ccoc1 was run?
Answer: 6.15

Question: How did the pIC50 turn out when Cc1cc(N2CCCC2=O)ccc1-c1ccc(C(=O)N2CCC(Oc3cccc(Cl)c3)CC2)cc1 was run?
Answer: 6.37

Question: With COc1cc(C)c(NC(=O)c2cccc3c(=O)c(C)c(-c4ccccc4)oc23)cc1OC as the molecule, how does the pIC50 read?
Answer: 5.79

Question: With COc1ccc(-c2cnc(N)c(-c3ccc(O)c(OC)c3)c2)cn1 as the molecule, how does the pIC50 read?
Answer: 6.06

Question: Cc1[nH]c(C)c([N+](=O)[O-])c(=O)c1-c1ccc(Oc2ccccc2)cc1 was tested. Which pIC50 did it give?
Answer: 6.57

Question: How did the pIC50 turn out when CCOC(=O)C1=C(C)N=c2sc(=Cc3cc(Cl)ccc3O)c(=O)n2C1c1ccc2c(c1)OCO2 (centres undefined) was run?
Answer: 6.15

Question: CC(C)C[C@@H](C(=O)N[C@H](C(=O)Nc1nccs1)C(C)(C)C)[C@H](CCC(F)(F)F)N(O)C=O was tested. Which pIC50 did it give?
Answer: 6.22

Question: With OC(CNc1ccnc(Nc2ccccc2)n1)c1cccc(C(F)(F)F)c1 (centres undefined) as the molecule, how does the pIC50 read?
Answer: 6.19

Question: With O=C(/C=C/c1ccc(Cl)c(Cl)c1)N1CCC(CN2CCC(c3c(-c4ccc(F)cc4)[nH]c4ccccc34)CC2)CC1 as the molecule, how does the pIC50 read?
Answer: 6.77

Question: CCCCc1ccc(-c2c(N)nc(N)nc2CC)cc1 was tested. Which pIC50 did it give?
Answer: 6.02

Question: FC(F)(F)c1cc(Nc2ccc(Oc3ccccc3)cc2)c2cc(-c3ccncc3)ccc2n1 was tested. Which pIC50 did it give?
Answer: 6.35

Question: With O=C(Nc1ccc(Cl)cc1)Nc1ccc(-c2csc(-c3nc4ccccc4[nH]3)c2)cc1 as the molecule, how does the pIC50 read?
Answer: 6.10

Question: How did the pIC50 turn out when CCCc1cc(=O)oc2cc(OC)c(C(=O)CC(C)C)c(OC)c12 was run?
Answer: 6.00

Question: How did the pIC50 turn out when COc1cccc(C(NC(=O)c2ccccc2)c2ccc3cccnc3c2O)c1 (centres undefined) was run?
Answer: 5.97

Question: How did the pIC50 turn out when COCCCNC(=S)NN=C(C)c1ccccn1 was run?
Answer: 6.52

Question: O=C(Cc1cnc[nH]1)Nc1cccc(-c2cccc(-c3nc4ccccc4[nH]3)c2)c1 was tested. Which pIC50 did it give?
Answer: 5.99

Question: COc1ccc2ncc(F)c(CCN3C[C@H](CNCc4ccc5c(c4)OCCO5)[C@H](O)C3)c2n1 was tested. Which pIC50 did it give?
Answer: 6.03

Question: How did the pIC50 turn out when N#Cc1ccc(N(CC(=O)NCCc2ccc(F)cc2)CC2CC2)c2ccccc12 was run?
Answer: 6.03

Question: CC(O)CNc1nc2ccccc2n1CC(=O)Nc1cccc(C(=O)Nc2cccc(C(F)(F)F)c2)c1 (centres undefined) was tested. Which pIC50 did it give?
Answer: 7.00

Question: With CC(C)(C)NCC(O)COc1ccc(Cl)cc1C1=NNC(=O)CC1 (centres undefined) as the molecule, how does the pIC50 read?
Answer: 6.82

Question: With CCCNC[C@@H](O)[C@H](Cc1ccccc1)NC(=O)c1cc2c3c(c1)c(CC)cn3CCS(=O)(=O)N2C as the molecule, how does the pIC50 read?
Answer: 7.00

Question: How did the pIC50 turn out when Cc1ccc(NC(=O)NC2CCN(CCCCCNC(=O)/C=C/c3ccc(Cl)c(Cl)c3)CC2)cc1 was run?
Answer: 6.16

Question: COc1cccc(CN2CCC(C(=O)Nc3ccc(-c4nc5ccccc5[nH]4)cc3)CC2)c1 was tested. Which pIC50 did it give?
Answer: 6.20

Question: How did the pIC50 turn out when c1ccc(Oc2ccc(Nc3ccnc4cc(-c5cccc(CNCCN6CCOCC6)c5)ccc34)cc2)cc1 was run?
Answer: 6.41

Question: With Cc1c2ccncc2c(C)c2c1[nH]c1ccccc12 as the molecule, how does the pIC50 read?
Answer: 6.10

Question: How did the pIC50 turn out when COc1ccc(CCN(C)CCc2ccc(NC(=O)c3cccc4c(=O)c5ccccc5sc34)cc2)cc1 was run?
Answer: 6.07

Question: How did the pIC50 turn out when CC(C)(C)c1nn(-c2ccccc2)c2[nH]c(=O)c(CNCCc3ccccc3)cc12 was run?
Answer: 6.06

Question: With CCNc1cc(C(=O)N[C@@H](Cc2ccccc2)[C@H](O)CNC2(C(C)C)CCC2)cc(N2CCCCS2(=O)=O)c1 as the molecule, how does the pIC50 read?
Answer: 6.17

Question: With CCN(CC)CCN(Cc1ccc(-c2ccc(C(F)(F)F)cc2)cc1)C(=O)Cn1c(CCC2CCCCC2)nc(=O)c2ccccc21 as the molecule, how does the pIC50 read?
Answer: 5.86

Question: CN1CCN(CCCN(Cc2cccc(-c3ccc(CNCCc4ccccc4)cc3)c2)C(=O)Nc2ccccc2)CC1 was tested. Which pIC50 did it give?
Answer: 6.08

Question: Cn1nc(-c2ccc(NC(=O)Nc3cc(C(F)(F)F)cc(C(F)(F)F)c3)c(F)c2)c2cnc(NCCN3CCOCC3)nc21 was tested. Which pIC50 did it give?
Answer: 6.10

Question: How did the pIC50 turn out when CCOC(=O)c1ccc(NC(=O)Nc2cccc(-c3cccc(-c4nc5ccccc5[nH]4)c3)c2)cc1 was run?
Answer: 7.15

Question: With COc1cc(NC(=O)c2cccs2)c(C(=O)NCc2ccc(C)cc2)cc1OC as the molecule, how does the pIC50 read?
Answer: 5.87

Question: How did the pIC50 turn out when CC(=O)N(C)c1cccc(C(=O)Nc2cccc(-c3ccc(-c4nc5ccc(C(F)(F)F)cc5[nH]4)cc3)c2)c1 was run?
Answer: 6.00

Question: With O=C(Nc1ccc(Cl)c(C(F)(F)F)c1)c1ccc(Cl)c([N+](=O)[O-])c1 as the molecule, how does the pIC50 read?
Answer: 5.95

Question: How did the pIC50 turn out when O=C(C=Cc1ccc(Cl)c(Cl)c1)NCCCCCN1CCC(CCCNS(=O)(=O)c2ccc(F)cc2)CC1 was run?
Answer: 5.99

Question: With O=c1cc(NCCCCNCc2cccc(Cl)c2)[nH]c2ccccc12 as the molecule, how does the pIC50 read?
Answer: 6.13

Question: O=C(Nc1ccncc1)c1cc(C(=O)Nc2ccncc2)cc([N+](=O)[O-])c1 was tested. Which pIC50 did it give?
Answer: 6.21

Question: How did the pIC50 turn out when CN1CC=C(c2csc3ccc(NC(=O)Nc4ccc(-c5ccncc5)c5ccccc45)cc23)CC1 was run?
Answer: 6.10

Question: Cc1cccc2[nH]c(-c3ccc(-c4cccc(CNCCCNS(C)(=O)=O)c4)cc3)nc12 was tested. Which pIC50 did it give?
Answer: 5.91

Question: O=C(CSc1nccn1Cc1ccco1)Nc1cc(C(F)(F)F)ccc1Cl was tested. Which pIC50 did it give?
Answer: 6.09

Question: NC(N)=NC(=O)Nc1cc(Br)c(Cl)c(C(F)(F)F)c1 was tested. Which pIC50 did it give?
Answer: 6.12

Question: CCCCC(=O)Nc1nc2ccc([N+](=O)[O-])cc2s1 was tested. Which pIC50 did it give?
Answer: 6.12

Question: Cc1cccc2[nH]c(-c3ccc(-c4ccc(NC(=O)CN5CCN(C)CC5)cc4)cc3)nc12 was tested. Which pIC50 did it give?
Answer: 6.10

Question: O=C(Nc1ccc(Oc2ccc(OC(F)(F)F)cc2)cc1)c1ccco1 was tested. Which pIC50 did it give?
Answer: 5.95

Question: O=S(=O)(NC1CCN(c2ccnc3cc(Cl)ccc23)C1)c1cccs1 (centres undefined) was tested. Which pIC50 did it give?
Answer: 6.15

Question: With CNC(=O)c1ccc2nc(-c3ccc(-c4ccccc4)cc3)n(CC3CCN(CC4CCCC4)CC3)c2c1 as the molecule, how does the pIC50 read?
Answer: 7.40

Question: With CC(C)(C)OC(=O)n1cc(C2CCN(CCCC34CCCc5cccc(c53)NC4=O)CC2)c2ccncc21 (centres undefined) as the molecule, how does the pIC50 read?
Answer: 6.06
